US20040131574A1, “Method and composition for the control of hair growth” (priority 2001, published 2004)

Experiments:
Assay type in all cases: in vivo
hair regrowth [1] = assay: hair regrowth after shaving in dogs treated s.c. twice daily for 13 days, versus saline control dog; conditions: total daily dose 4-3 mg/kg; for relative order of hair regrowth: approximately 6 weeks post-drug; for hair regrowth compared with control dog: shaved 3 days post-drug, observed approximately 6 weeks post-drug
Description: Several dogs were treated with (R,R) or (S,S)—(HO)2DEHSPM s.c. twice daily for 13 days. The total daily dose was 4-3 mg/kg. One additional dog served as a saline-treated control animal. All of the dogs were Holter monitored once weekly for evidence of cardiac rhythm disturbances. A post-drug Holter monitoring was performed 3 days post-drug and hair was shaved at that time to allow for the placing of the leads.

hair regrowth [2] = assay: hair regrowth after shaving in dogs treated s.c. for 20 days; conditions: s.c. 4.3 mg/kg/d for 20 days, shaved 5 days post-drug, observed approximately 8 weeks post-drug
Description: Two dogs were treated with (R,R)—(HO)2DEHSPM (dihydroxydiethylhomospermine) s.c. at a dose of 4.3 mg/kg/d for 20 days. The dogs were Holter-Monitored once weekly for evidence of cardiac rhythm disturbances. A post-drug Holter monitoring was performed 5 days post-drug and hair was shaved at that time to allow for the placing of the leads.

[3] = test system: hair growth in the shaved area; assay: hair re-growth in partially shaven mice; conditions: C57/B16 mice
Description: Fourteen C57/B16 mice were partially shaven; one was maintained as a control and to the remainder was administered diethyl-homospermine [10 mg/kg-0.01% solution (Bid)], six times daily over 9 days.
The above test (Example 1) was repeated except that the dosage of polyamine was 7.5 mg/kg.

Row | SMILES | relative order of hair regrowth (hair regrowth [1]) | hair regrowth compared with control dog (hair regrowth [1]) | hair regrowth at shaved Holter lead sites (hair regrowth [2]) | resumption of normal hair growth in the shaved area ([3]; 10 mg/kg-0.01% solution (Bid), six times daily over 9 days) | normal hair re-growth in the shaved areas ([3]; dosage 7.5 mg/kg, otherwise as Example 1)
1 | CCNC[C@H](O)CCNCCCCNCC[C@@H](O)CNCC [(R,R)—(HO)2DEHSPM, (R,R)-dihydroxydiethylhomospermine] | control dog >(S,S)—(HO)2DEHSPM dogs>(R,R)—HO2DEHSPM dogs | this was not the case with the treated animals | hair from the last Holter monitoring had not grown back | – | –
2 | CCNC[C@@H](O)CCNCCCCNCC[C@H](O)CNCC [(S,S)—(HO)2DEHSPM, (S,S)-dihydroxydiethylhomospermine] | control dog >(S,S)—(HO)2DEHSPM dogs>(R,R)—HO2DEHSPM dogs | this was not the case with the treated animals | – | – | –
3 | CCNCCCCNCCCCNCCCCNCC [diethyl-homospermine, N,N′-diethylhomospermine] | – | – | – | The control resumed normal hair growth immediately in the shaved area, unlike the remainder of the mice in the test | the mice treated with the polyamine did not
